Test results published in patent US20240132464A1, “HETEROCYCLIC COMPOUNDS AS E3 LIGASE INHIBITORS” (Accutar Biotechnology Inc., priority 2022, published 2024).

Molecular target: T1, GID4 (Uniprot ID: Q81VV7, residues 124-289) (Homo sapiens, UniProt Q8IVV7)
T1 construct: GID4 (Uniprot ID: Q81VV7, residues 124-289)
T1 sequence (Q8IVV7 124-289): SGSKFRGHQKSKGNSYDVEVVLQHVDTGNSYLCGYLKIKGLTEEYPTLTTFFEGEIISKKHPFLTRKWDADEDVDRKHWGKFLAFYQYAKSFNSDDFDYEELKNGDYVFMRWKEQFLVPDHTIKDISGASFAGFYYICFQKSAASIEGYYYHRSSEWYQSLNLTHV
Experiment: GID4 competitive binding assay (AlphaScreen, GID4/degron peptide PGLW)
Conditions: 24 nM GID4, 48 nM biotinylated degron peptide PGLW, 4° C., read-out: IC50 (Inhibition of GID4/Degron binding by test compounds)
Method in brief: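 His-tagged human GID4 (residues 124-289, 24 nM) pre-incubated 2 h at 4 °C with 48 nM biotinylated PGLW peptide and compound in HEPES pH 7.5 buffer, 2% DMSO (final). AlphaScreen streptavidin donor/Ni-NTA acceptor beads added for 1 h; IC50 from nonlinear fit of % inhibition versus DMSO.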

Nc1cc(N2CCN(CCO)[C@@H](c3ccccc3Br)C2)nc(N)n1 (stereo in doubt) [Compound 66, (S/R)-2-(2-(2-bromophenyl)-4-(2,6-diaminopyrimidin-4-yl)piperazin-1-yl)ethan-1-ol]
IC50: > 5000 nM

CN(C)CCCCNC(=O)c1ccc(-c2cc(O)c3ncccc3c2)cc1 [Compound 289, N-(4-(dimethylamino)butyl)-4-(8-hydroxyquinolin-6-yl)benzamide]
IC50: < 500 nM

Nc1nc2c(c(N3CCCC(c4ccn[nH]4)C3)n1)CSC2 (stereo not shown) [Compound 199, 4-(3-(1H-pyrazol-5-yl)piperidin-1-yl)-5,7-dihydrothieno[3,4-d]pyrimidin-2-amine]
IC50: > 5000 nM

Nc1nc2c(c(N3CCNC(c4ccccc4Br)C3)n1)COCC2 (stereo not shown) [Compound 184, 4-(3-(2-bromophenyl)piperazin-1-yl)-7,8-dihydro-5H-pyrano[4,3-d]pyrimidin-2-amine]
IC50: 500 to 5000 nM

CC(C)c1cc(N2CCCC(c3cnc4ccccn34)C2)ncn1 (racemic) [Compound 148, (R/S)-3-(1-(6-isopropylpyrimidin-4-yl)piperidin-3-yl)imidazo[1,2-a]pyridine]
IC50: > 5000 nM

CC(C)c1nc(N2CCCC(c3cnc4ccccn34)C2)c2cc[nH]c2n1 (stereo not shown) [Compound 374, 4-(3-(imidazo[1,2-a]pyridin-3-yl)piperidin-1-yl)-2-isopropyl-7H-pyrrolo[2,3-d]pyrimidine]
IC50: < 500 nM

CC(C)c1cc(N2CCN[C@@H](c3cnc4ccccn34)C2)c2nc[nH]c2n1 (stereo in doubt) [Compound 368, (R/S)-7-(3-(imidazo[1,2-a]pyridin-3-yl)piperazin-1-yl)-5-isopropyl-3H-imidazo[4,5-b]pyridine]
IC50: 500 to 5000 nM

c1ccn2c(C3CCCN(c4ncnc5[nH]ccc45)C3)cnc2c1 (stereo not shown) [Compound 90, 4-(3-(imidazo[1,2-a]pyridin-3-yl)piperidin-1-yl)-7H-pyrrolo[2,3-d]pyrimidine]
IC50: > 5000 nM

Nc1nc(C2CC2)cc(N2CCN[C@H](c3ccccc3Br)C2)n1 (stereo in doubt) [Compound 132, (R/S)-4-(3-(2-bromophenyl)piperazin-1-yl)-6-cyclopropylpyrimidin-2-amine]
IC50: 500 to 5000 nM

CN(C)CCCNC(=O)C1CC=C(c2cc(O)c3ncccc3c2)CC1 (stereo not shown) [Compound 305, N-(3-(dimethylamino)propyl)-4-(8-hydroxyquinolin-6-yl)cyclohex-3-ene-1-carboxamide]
IC50: 500 to 5000 nM

Nc1nc(NC2CC2)cc(N2CCN(CCO)[C@@H](c3ccccc3Br)C2)n1 (racemic) [Compound 45, (S/R)-2-(4-(2-amino-6-(cyclopropylamino)pyrimidin-4-yl)-2-(2-bromophenyl)piperazin-1-yl)ethan-1-ol]
IC50: < 500 nM

Cn1nccc1-c1cc(N2CC3CC(C2)N3)nc2c(-c3cc[nH]n3)nccc12 [Compound 365, 3-(4-(1-methyl-1H-pyrazol-5-yl)-8-(1H-pyrazol-3-yl)-1,7-naphthyridin-2-yl)-3,6-diazabicyclo[3.1.1]heptane]
IC50: 500 to 5000 nM

Nc1cc(N2CCCC(n3ncc4ccccc43)C2)nc(N)n1 (stereo not shown) [Compound 89, 6-(3-(1H-indazol-1-yl)piperidin-1-yl)pyrimidine-2,4-diamine]
IC50: > 5000 nM

CN(C)CCCNC(=O)c1ccc(-c2cc3cccnc3c(O)c2F)cc1 [Compound 308, N-(3-(dimethylamino)propyl)-4-(7-fluoro-8-hydroxyquinolin-6-yl)benzamide]
IC50: < 500 nM

COC1CCN(C(=O)c2cccc(-c3ccc4ccnc(N)c4c3)c2)CC1 [Compound 346, (3-(1-aminoisoquinolin-7-yl)phenyl)(4-methoxypiperidin-1-yl)methanone]
IC50: 500 to 5000 nM

CN1CCCC(CNC(=O)c2ccc(-c3cc(O)c4ncccc4c3)cc2)C1 (stereo not shown) [Compound 290, 4-(8-hydroxyquinolin-6-yl)-N-((1-methylpiperidin-3-yl)methyl)benzamide]
IC50: < 500 nM

CC(C)c1cc(Nc2cccc(-c3cnccn3)c2)nc(N)n1 [Compound 198, 6-isopropyl-N4-(3-(pyrazin-2-yl)phenyl)pyrimidine-2,4-diamine]
IC50: > 5000 nM

CNc1cc(N2CCC[C@@H](c3ccccc3Br)C2)nc(N)n1 (stereo in doubt) [Compound 87, (S/R)-6-(3-(2-bromophenyl)piperidin-1-yl)-N4-methylpyrimidine-2,4-diamine]
IC50: < 500 nM

CNc1cc(N2CCNC(c3ccccc3)C2)nc(N)n1 (single isomer, unassigned) [Compound 128, (R/S)-N4-methyl-6-(3-phenylpiperazin-1-yl)pyrimidine-2,4-diamine]
IC50: > 5000 nM

Nc1nc(NC2CC2)cc(N2CCOC(c3ccccc3)C2)n1 (single isomer, unassigned) [Compound 96, (R/S)-N4-cyclopropyl-6-(2-phenylmorpholino)pyrimidine-2,4-diamine]
IC50: > 5000 nM

CN(C)CCNC(=O)c1n[nH]c2ccc(-c3ccc4ccnc(N)c4c3)nc12 [Compound 327, 5-(1-aminoisoquinolin-7-yl)-N-(2-(dimethylamino)ethyl)-1H-pyrazolo[4,3-b]pyridine-3-carboxamide]
IC50: 500 to 5000 nM

CN(C)CCCNC(=O)c1ccc(-c2cc(O)c3ncccc3c2)c(Cl)c1 [Compound 317, 3-chloro-N-(3-(dimethylamino)propyl)-4-(8-hydroxyquinolin-6-yl)benzamide]
IC50: 500 to 5000 nM

CC(=O)N1CCN(c2cc(N)nc(N)n2)C[C@H]1c1ccccc1Br (stereo in doubt) [Compound 60, (R/S)-1-(2-(2-bromophenyl)-4-(2,6-diaminopyrimidin-4-yl)piperazin-1-yl)ethan-1-one]
IC50: > 5000 nM

CN(C)CCNC(=O)c1ccc(-c2cc(O)c3ncccc3c2)cc1 [Compound 299, N-(2-(dimethylamino)ethyl)-4-(8-hydroxyquinolin-6-yl)benzamide]
IC50: < 500 nM

Nc1nc(NC2CC2)c(Cl)c(N2CCNC(c3ccccc3Br)C2)n1 (stereo not shown) [Compound 63, 6-(3-(2-bromophenyl)piperazin-1-yl)-5-chloro-N4-cyclopropylpyrimidine-2,4-diamine]
IC50: 500 to 5000 nM

CNc1cc(N2CCNC(c3cnc4ccccn34)C2)nc(N)n1 (stereo not shown) [Compound 92, 6-(3-(imidazo[1,2-a]pyridin-3-yl)piperazin-1-yl)-N4-methylpyrimidine-2,4-diamine]
IC50: 500 to 5000 nM

CC(C)c1cc(-c2cc(-c3ccnn3C)c3cccc(-c4cc[nH]n4)c3n2)cc(N)n1 [Compound 367, 6-isopropyl-4-(4-(1-methyl-1H-pyrazol-5-yl)-8-(1H-pyrazol-3-yl)quinolin-2-yl)pyridin-2-amine]
IC50: 500 to 5000 nM

CC(C)c1cc(N2CCCC(c3cnc4ccccn34)C2)nc(N)n1 (stereo not shown) [Compound 178, 4-(3-(imidazo[1,2-a]pyridin-3-yl)piperidin-1-yl)-6-isopropylpyrimidin-2-amine]
IC50: < 500 nM

CC(C)c1cc(N2CCNC(c3ccccc3Cl)C2)nc(N)n1 (stereo not shown) [Compound 175, 4-(3-(2-chlorophenyl)piperazin-1-yl)-6-isopropylpyrimidin-2-amine]
IC50: 500 to 5000 nM

CN(C)CCNCc1n[nH]c2ccc(-c3ccc4ccnc(N)c4c3)cc12 [Compound 3, N1-((5-(1-aminoisoquinolin-7-yl)-1H-indazol-3-yl)methyl)-N2,N2-dimethylethane-1,2-diamine]
IC50: < 500 nM

CC(C)c1cc(N2CCCC(c3cnc4ccccn34)C2)c2cc[nH]c2n1 (stereo not shown) [Compound 370, 3-(1-(6-isopropyl-1H-pyrrolo[2,3-b]pyridin-4-yl)piperidin-3-yl)imidazo[1,2-a]pyridine]
IC50: < 500 nM

COC(=O)c1ccc(Br)c(C2CN(c3cc(N)nc(N)n3)CCN2)c1 (stereo not shown) [Compound 38, methyl 4-bromo-3-(4-(2,6-diaminopyrimidin-4-yl)piperazin-2-yl)benzoate]
IC50: < 500 nM

CN(C)CCNC(=O)c1cc2cc(-c3ccc4ccnc(N)c4c3)ccc2cn1 [Compound 356, 1′-amino-N-(2-(dimethylamino)ethyl)-[6,7′-biisoquinoline]-3-carboxamide]
IC50: < 500 nM

O=C(c1ccc(-c2cc(O)c3ncccc3c2)cc1)N1CCCC1 [Compound 301, (4-(8-hydroxyquinolin-6-yl)phenyl)(pyrrolidin-1-yl)methanone]
IC50: 500 to 5000 nM

CC(C)c1cc(N2CCNC(c3c[nH]c4ccccc34)C2)nc(N)n1 (stereo not shown) [Compound 138, 4-(3-(1H-indol-3-yl)piperazin-1-yl)-6-isopropylpyrimidin-2-amine]
IC50: 500 to 5000 nM

Nc1cc(N2CCNC(c3ccccc3Br)C2)nc(N)n1 (stereo not shown) [Compound 172, 6-(3-(2-bromophenyl)piperazin-1-yl)pyrimidine-2,4-diamine]
IC50: < 500 nM

CC(C)c1cc(N2CCCC(c3cnn4ccccc34)C2)nc(N)n1 (stereo not shown) [Compound 240, 4-isopropyl-6-(3-(pyrazolo[1,5-a]pyridin-3-yl)piperidin-1-yl)pyrimidin-2-amine]
IC50: < 500 nM

CN(C)CCCNC(=O)Cc1ccc(-c2cc(O)c3ncccc3c2)cc1 [Compound 288, N-(3-(dimethylamino)propyl)-2-(4-(8-hydroxyquinolin-6-yl)phenyl)acetamide]
IC50: < 500 nM

Cc1cc(N2CCCC(c3cnc4ccccn34)C2)nc(N)n1 (stereo not shown) [Compound 147, 4-(3-(imidazo[1,2-a]pyridin-3-yl)piperidin-1-yl)-6-methylpyrimidin-2-amine]
IC50: 500 to 5000 nM

Nc1nc2c(c(N3CCCC(c4cnc5ccccn45)C3)n1)CSC2 (stereo not shown) [Compound 186, 4-(3-(imidazo[1,2-a]pyridin-3-yl)piperidin-1-yl)-5,7-dihydrothieno[3,4-d]pyrimidin-2-amine]
IC50: > 5000 nM
